Consider 21 molecules from patent US20230279016A1, “Tetrahydropyrazolopyrimidines and Related Analogs for Inhibiting YAP/TAZ-TEAD” (THE KATHOLIEKE UNIVERSITEIT LEUVEN, priority 2021, published 2023).

Where only a bound is given, the exact number is not on record here.

What all share (format): cell-based
Test [1] concerns NCI-H226 mesothelioma cell line. Briefly: Mesothelioma cell line proliferation assay, NCI-H226. Particulars: NCI-H226, 6 days with compound, cell viability by ATPlite. The protocol: (§1) Mesothelioma cell lines, NCI-H226 and NCI-H2052 (all sourced from the ATCC cell culture collection) are plated in 96-well plates (Corning® 96 Well White Polystyrene Microplate clear flat bottom, white polystyrene (TC-Treated)), at 1500 cells/well in full medium (RPMI 1640 ATCC modification with L-glutamine, HEPES, Phenol Red, Sodium Pyruvate, High glucose, Low sodium bicarbonate and 10% fetal bovine serum). Cells are incubated overnight at 37° C. in an incubator with 5% CO2. Then compounds, dissolved in DMSO, are added in dose-response. Cells are incubated with compound dilutions for another 6 days at 37° C. in an incubator with 5% CO2. Cell viability is quantitated using the ATPlite kit (Perkin-Elmer) and the luminescence is read-out using an Envision instrument (Perkin-Elmer). The amount of relative light units produced using the ATPlite kit is used to calculated percent of inhibition.
(§2) The activities of example compounds tested are depicted in the table below. The activity ranges A, B and C refer to EC50 values in the mesothelioma cell line proliferation assay as described as follows: “A”: EC50 <1 μM; “B” : 1 μM EC50 ≤10 μM and “C” : EC50 >10 μM. NT: not tested.

Test [2] concerns NCI-H2052 mesothelioma cell line. Briefly: Mesothelioma cell line proliferation assay, NCI-H2052. Particulars: NCI-H2052, 6 days with compound, cell viability by ATPlite. How it is done: as §1, §2
For test [3], the system named is YAP/TAZ-TEAD transcription. Briefly: Reporter gene assay for measuring the inhibition of YAP/TAZ-TEAD transcription (TEAD-responsive element luciferase reporter in Hek293T cells). Particulars: Hek293T cells transiently transfected with TEAD-responsive element luciferase reporter, 24 hours incubation. Summed up:
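Hek293T cells transiently transfected with TEAD-responsive luciferase reporter, exposed to compound for 24 h at 37° C/5% CO2, then read by luminescence. Percent inhibition normalized to vehicle (0%) and positive control inhibitor (100%); EC50 reported as activity ranges.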

As to `C=CC(=O)NCC1CN(c2cccc(C(F)(F)F)c2)c2ccnn2C1` (single isomer, unassigned) [Cpd. No. 003-En1, (R)- or (S)-N-((4-(3-(trifluoromethyl)phenyl)-4,5,6,7-tetrahydropyrazolo[1,5-a]pyrimidin-6-yl)methyl)acrylamide], the 50% effective concentration (EC50) in test [1] (Homo sapiens, NCI-H226, 144 h) is 1000 to 10000 nM; in test [2] (Homo sapiens, NCI-H2052, 144 h), more than 10000 nM.

With `C=CC(=O)NCC1CN(c2ccc(C(F)(F)F)cn2)c2ccnn2C1` (single isomer, unassigned) [Cpd. No. 008-En1, (R)- or (S)-N-((4-(5-(trifluoromethyl)pyridin-2-yl)-4,5,6,7-tetrahydropyrazolo[1,5-a]pyrimidin-6-yl)methyl)acrylamide], the EC50 is less than 1000 nM in test [1] (Homo sapiens, NCI-H226, 144 h); less than 1000 nM in test [2] (Homo sapiens, NCI-H2052, 144 h); less than 1000 nM in test [3] (Homo sapiens, HEK-293T, 24 h).

Turning to `C=CC(=O)NCC1CN(c2ccc(OC(F)(F)F)c(F)c2)c2ccnn2C1` (single isomer, unassigned) [Cpd. No. 018-En1, (R)- or (S)-N-((4-(3-fluoro-4-(trifluoromethoxy)phenyl)-4,5,6,7-tetrahydropyrazolo[1,5-a]pyrimidin-6-yl)methyl)acrylamide], the EC50 in test [1] (Homo sapiens, NCI-H226, 144 h) is less than 1000 nM; in test [2] (Homo sapiens, NCI-H2052, 144 h), less than 1000 nM.

Turning to `C=CC(=O)NCC1CN(c2ccc(OC(F)(F)F)c(F)c2)c2ccnn2C1` (single isomer, unassigned) [Cpd. No. 018-En2, (R)- or (S)-N-((4-(3-fluoro-4-(trifluoromethoxy)phenyl)-4,5,6,7-tetrahydropyrazolo[1,5-a]pyrimidin-6-yl)methyl)acrylamide], the EC50 in test [1] and in test [2] was less than 1000 nM throughout.

As to `C=CC(=O)NCC1CN(c2ccc(Br)cc2)c2ccnn2C1` (single isomer, unassigned) [Cpd. No. 021-En2, (R)- or (S)-N-((4-(4-bromophenyl)-4,5,6,7-tetrahydropyrazolo[1,5-a]pyrimidin-6-yl)methyl)acrylamide], the EC50 in test [1] (Homo sapiens, NCI-H226, 144 h) is less than 1000 nM; in test [2] (Homo sapiens, NCI-H2052, 144 h), less than 1000 nM.

Regarding `C=CC(=O)NCC1CN(c2ccc(OC(F)(F)F)cc2)c2cc(C(F)(F)F)nn2C1` (single isomer, unassigned) [Cpd. No. 035-En2, (R)- or (S)-N-((4-(4-(trifluoromethoxy)phenyl)-2-(trifluoromethyl)-4,5,6,7-tetrahydropyrazolo[1,5-a]pyrimidin-6-yl)methyl)acrylamide], the EC50 in test [1] (Homo sapiens, NCI-H226, 144 h) is less than 1000 nM; in test [2] (Homo sapiens, NCI-H2052, 144 h), 1000 to 10000 nM.

As to `C=CC(=O)NCC1CN(CC2CCCCC2)c2ccnn2C1` (single isomer, unassigned) [Cpd. No. 055-En2, (R)- or (S)-N-((4-(cyclohexylmethyl)-4,5,6,7-tetrahydropyrazolo[1,5-a]pyrimidin-6-yl)-methyl)acrylamide], the EC50 is less than 1000 nM in test [1] (Homo sapiens, NCI-H226, 144 h) and more than 10000 nM in test [2] (Homo sapiens, NCI-H2052, 144 h).

For `C=CC(=O)NC1CN(c2ccc(C(F)(F)F)c(F)c2)c2ccnn2C1` (single isomer, unassigned) [Cpd. No. 064-En1, (R)- or (S)-N-(4-(3-fluoro-4-(trifluoromethyl)phenyl)-4,5,6,7-tetrahydropyrazolo[1,5-a]pyrimidin-6-yl)acrylamide], the EC50 in test [1] (Homo sapiens, NCI-H226, 144 h) was less than 1000 nM; in test [2] (Homo sapiens, NCI-H2052, 144 h), less than 1000 nM.

The molecule `CCC(=O)NCC1Cc2nn(C)cc2N(c2ccc(C(F)(F)F)cc2)C1` (stereo not drawn) [Cpd. No. 073, N-((2-methyl-4-(4-(trifluoromethyl)phenyl)-4,5,6,7-tetrahydro-2H-pyrazolo[4,3-b]pyridin-6-yl)methyl)propionamide] yielded an EC50 in test [3] (Homo sapiens, HEK-293T, 24 h) of less than 1000 nM.

Take `CCC(=O)NCC1Cc2c(cnn2C)N(c2ccc(OC(F)(F)F)cc2)C1` (stereo not drawn) [Cpd. No. 074, N-((1-methyl-4-(4-(trifluoromethoxy)phenyl)-4,5,6,7-tetrahydro-1H-pyrazolo[4,3-b]pyridin-6-yl)methyl)propionamide]: the EC50 in test [3] (Homo sapiens, HEK-293T, 24 h) was more than 20000 nM.

With `CCC(=O)NCC1Cc2nn(C)cc2N(c2ccc(OC(F)(F)F)cc2)C1` (stereo not drawn) [Cpd. No. 075, N-((2-methyl-4-(4-(trifluoromethoxy)phenyl)-4,5,6,7-tetrahydro-2H-pyrazolo[4,3-b]pyridin-6-yl)methyl)propionamide], the EC50 in test [3] (Homo sapiens, HEK-293T, 24 h) fell in the range of 1000 to 20000 nM.

For the molecule `Cn1ncc2c1CC(CNS(C)(=O)=O)CN2c1ccc(C(F)(F)F)cc1` (stereo not drawn) [Cpd. No. 076, N-((1-methyl-4-(4-(trifluoromethyl)phenyl)-4,5,6,7-tetrahydro-1H-pyrazolo[4,3-b]pyridin-6-yl)methyl)methanesulfonamide], the EC50 in test [3] (Homo sapiens, HEK-293T, 24 h) was more than 20000 nM.

Turning to `Cn1cc2c(n1)CC(CNS(C)(=O)=O)CN2c1ccc(C(F)(F)F)cc1` (stereo not drawn) [Cpd. No. 077, N-((2-methyl-4-(4-(trifluoromethyl)phenyl)-4,5,6,7-tetrahydro-2H-pyrazolo[4,3-b]pyridin-6-yl)methyl)methanesulfonamide], the EC50 in test [3] (Homo sapiens, HEK-293T, 24 h) is 1000 to 20000 nM.

For the molecule `Cn1ncc2c1CC(CNS(C)(=O)=O)CN2c1ccc(OC(F)(F)F)cc1` (stereo not drawn) [Cpd. No. 078, N-((1-methyl-4-(4-(trifluoromethoxy)phenyl)-4,5,6,7-tetrahydro-1H-pyrazolo[4,3-b]pyridin-6-yl)methyl)methanesulfonamide], the EC50 in test [3] (Homo sapiens, HEK-293T, 24 h) was more than 20000 nM.

`Cn1cc2c(n1)CC(CNS(C)(=O)=O)CN2c1ccc(OC(F)(F)F)cc1` (stereo not drawn) [Cpd. No. 079, N-((2-methyl-4-(4-(trifluoromethoxy)phenyl)-4,5,6,7-tetrahydro-2H-pyrazolo[4,3-b]pyridin-6-yl)methyl)methanesulfonamide] registered an EC50 in test [3] (Homo sapiens, HEK-293T, 24 h) of 1000 to 20000 nM.

In test [3], `CCC(=O)NCC1Cc2c(cnn2Cc2cccc(C(N)=O)c2)N(c2ccc(C(F)(F)F)cc2)C1` (stereo not drawn) [Cpd. No. 082, 3-((6-(propionamide-methyl)-4-(4-(trifluoromethyl)phenyl)-4,5,6,7-tetrahydro-1H-pyrazolo[4,3-b]pyridin-1-yl)methyl)benzamide] had an EC50 of less than 1000 nM.

`CCC(=O)NCC1Cc2nn(Cc3cccc(C(N)=O)c3)cc2N(c2ccc(C(F)(F)F)cc2)C1` (stereo not drawn) [Cpd. No. 083, 3-((6-(propionamide-methyl)-4-(4-(trifluoromethyl)phenyl)-4,5,6,7-tetrahydro-2H-pyrazolo[4,3-b]pyridin-2-yl)methyl)benzamide]: the EC50 in test [3] was more than 20000 nM.

As to `C[C@H](NC(=O)NCC1CN(c2ccc(C(F)(F)F)cc2)c2ccnn2C1)c1ccccn1` (stereo partly drawn) [Cpd. No. 091, 1-((S)-1-(pyridin-2-yl)ethyl)-3-((4-(4-(trifluoromethyl)phenyl)-4,5,6,7-tetrahydropyrazolo[1,5-a]pyrimidin-6-yl)methyl)urea], the EC50 in test [3] (Homo sapiens, HEK-293T, 24 h) is more than 20000 nM.

As for `CNC(=O)C1CN(c2ccc(C(F)(F)F)cc2)c2ccnn2C1` (stereo not drawn) [Cpd. No. 092, N-methyl-4-(4-(trifluoromethyl)phenyl)-4,5,6,7-tetrahydropyrazolo[1,5-a]pyrimidine-6-carboxamide], the EC50 in test [3] (Homo sapiens, HEK-293T, 24 h) was more than 20000 nM.

For `CS(=O)(=O)NC(=O)C1CN(c2ccc(C(F)(F)F)cc2)c2ccnn2C1` (stereo not drawn) [Cpd. No. 093, N-(methylsulfonyl)-4-(4-(trifluoromethyl)phenyl)-4,5,6,7-tetrahydropyrazolo[1,5-a]pyrimidine-6-carboxamide], in test [3] (Homo sapiens, HEK-293T, 24 h), the EC50 was more than 20000 nM.

`C=CC(=O)NCC1CN(c2ccc(C(F)(F)F)cc2)c2cnc(C(F)(F)F)n2C1` (stereo not drawn) [Cpd. No. 094, N-((6-(trifluoromethyl)-1-(4-(trifluoromethyl)phenyl)-1,2,3,4-tetrahydroimidazo[1,5-a]pyrimidin-3-yl)methyl)acrylamide] had an EC50 in test [3] (Homo sapiens, HEK-293T, 24 h) of less than 1000 nM.
